Assay results taken from patent publication US20050197350A1, “Novel quinoline, tetrahydroquinazoline, and pyrimidine derivatives and methods of treatment related to the use thereof” (TAISHO PHARMACEUTICAL CO., LTD., priority 2003, published 2005).

These compounds were tested on MCH receptors (assay: MCH receptor activity class (method not given)). Settings: not given.

**Q.** For `Cc1cc(N[C@H]2CC[C@@H](NC(=O)Nc3ccccc3Oc3ccccc3)CC2)nc2ccccc12` [Example 2561, N-{cis-4-[(4-methylquinolin-2-yl)amino]cyclohexyl}-N′-(2-phenoxyphenyl)urea], which class is on record?
**A.** 1

Same assay, conditions: MCH receptor activity class 1-3 (percent of control at 10^-7 M or IC50)

**Q.** With `CSc1ccc(NC(=O)NC[C@H]2CC[C@@H](Nc3cc(N(C)C)c4ccccc4n3)CC2)cc1` [compound 2365] as the compound, how does the class read?
**A.** 3 (Class 3 The value of percent of control at 10^−7 M was more than 60% or the value of IC50 was more than 200 nM.)

**Q.** `CN(C)c1cc(N[C@H]2CC[C@@H](CNC(=O)Nc3cc(Cl)cc(Cl)c3)CC2)nc2ccccc12` [compound 2393] was tested. Which class did it give?
**A.** 3 (Class 3 The value of percent of control at 10^−7 M was more than 60% or the value of IC50 was more than 200 nM.)

**Q.** `CCOC(=O)[C@H](CC(C)C)NC(=O)NC[C@H]1CC[C@@H](Nc2nccc(N(C)C)n2)CC1` (relative stereo) [compound 2409] was tested. Which class did it give?
**A.** 3 (Class 3 The value of percent of control at 10^−7 M was more than 60% or the value of IC50 was more than 200 nM.)

Same assay, conditions: MCH receptor; class by percent of control at 10^-7 M or IC50

**Q.** `CN(C)c1nc(N[C@H]2CC[C@@H](NC(=S)NC(=O)c3ccco3)CC2)nc2c1CCCC2` [compound 2038] was tested. Which class did it give?
**A.** 3 (Class 3 The value of percent of control at 10^−7 M was more than 60% or the value of IC50 was more than 200 nM.)

**Q.** Which class does the source give for `COc1ccc(-c2ccccc2)cc1NC(=S)N[C@H]1CC[C@@H](Nc2nc3c(c(N(C)C)n2)CCCC3)CC1` [compound 1945] here?
**A.** 3 (Class 3 The value of percent of control at 10^−7 M was more than 60% or the value of IC50 was more than 200 nM.)

Same assay, conditions: activity class per percent of control at 10^-7 M or IC50

**Q.** For `CN(C)c1nc(N[C@H]2CC[C@@H](CNC(=O)CC3=CCCCC3)CC2)nc2c1CCCC2` [compound 1079], which class is on record?
**A.** 3 (Class 3 The value of percent of control at 10^−7 M was more than 60% or the value of IC50 was more than 200 nM.)

Same assay, conditions: class by percent of control at 10^-7 M or IC50

**Q.** Which class does the source give for `CC(NC(=O)NC1CCC(Nc2nccc(N(C)C)n2)CC1)c1ccccc1` (stereo not shown) [compound 2227] here?
**A.** 3 (Class 3 The value of percent of control at 10^−7 M was more than 60% or the value of IC50 was more than 200 nM.)

**Q.** Which class does the source give for `CCCCOC(=O)c1ccc(NC(=O)N[C@H]2CC[C@@H](Nc3nc4c(c(N(C)C)n3)CCCC4)CC2)cc1` [compound 1877] here?
**A.** 3 (Class 3 The value of percent of control at 10^−7 M was more than 60% or the value of IC50 was more than 200 nM.)

**Q.** For `CN(C)c1ccnc(N[C@H]2CC[C@@H](NC(=O)Nc3c(Cl)c(Cl)cc(Cl)c3Cl)CC2)n1` [compound 2228], which class is on record?
**A.** 3 (Class 3 The value of percent of control at 10^−7 M was more than 60% or the value of IC50 was more than 200 nM.)

**Q.** With `CN(C)c1nc(N[C@H]2CC[C@@H](NC(=O)CCc3ccc(Cl)c(Cl)c3)CC2)nc2c1CCCC2` [compound 974] as the compound, how does the class read?
**A.** 3 (Class 3 The value of percent of control at 10^−7 M was more than 60% or the value of IC50 was more than 200 nM.)

**Q.** With `CCc1cccc(CC)c1NC(=S)N[C@H]1CC[C@@H](Nc2cc(N(C)C)c3ccccc3n2)CC1` [compound 2277] as the compound, how does the class read?
**A.** 1 (Class 1: The value of percent of control at 10^−7 M was less than 40% or the value of IC50 was less than 50 nM.)

**Q.** `CN(C)c1ccnc(N[C@H]2CC[C@@H](CNC(=O)c3cccc(C#N)c3)CC2)n1` [compound 374] was tested. Which class did it give?
**A.** 3 (Class 3 The value of percent of control at 10^−7 M was more than 60% or the value of IC50 was more than 200 nM.)

**Q.** How did the class turn out when `CN(C)c1nc(N[C@H]2CC[C@@H](NC(=O)Nc3ccc(Cl)cc3Cl)CC2)nc2c1CCCC2` [compound 1819] was run?
**A.** 3 (Class 3 The value of percent of control at 10^−7 M was more than 60% or the value of IC50 was more than 200 nM.)

**Q.** How did the class turn out when `CN(C)c1nc(N[C@H]2CC[C@@H](NC(=S)Nc3ccc(Br)cc3OC(F)(F)F)CC2)nc2c1CCCC2` [compound 1787] was run?
**A.** 2 (Class 2: The value of percent of control at 10^−7 M was from 40% to 60% or the value of IC′50 was from 50 nM to 200 nM.)

**Q.** For `CN(C)c1cc(N[C@H]2CC[C@@H](NCCc3ccc(Br)cc3)CC2)nc2ccccc12` [compound 1447], which class is on record?
**A.** 3 (Class 3 The value of percent of control at 10^−7 M was more than 60% or the value of IC50 was more than 200 nM.)
